Measurements from PubChem BioAssay (NCI).
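These data come from cells grown in 96-well plates and exposed to compound for 48 hours at five concentrations. GI50 = concentration required for 50% inhibition of growth. The concentration for full growth arrest is given as TGI.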

How the values were obtained:
Assay in all cases: NCI anticancer screen, dose series, 48 h
SK-MEL-2 melanoma = test system: SK-MEL-2 melanoma
NCI-H522 lung = test system: NCI-H522 lung
MCF7 breast = test system: MCF7 breast
MALME-3M melanoma = test system: MALME-3M melanoma
HOP-62 NSCLC = test system: HOP-62 NSCLC
SW-620 colon = test system: SW-620 colon
HCT-15 colon = test system: HCT-15 colon
UACC-257 melanoma = test system: UACC-257 melanoma
KM12 colon = test system: KM12 colon
K-562 leukemia = test system: K-562 leukemia

SMILES	GI50 (SK-MEL-2 melanoma) [µM]	TGI (SK-MEL-2 melanoma) [µM]	GI50 (NCI-H522 lung) [µM]	TGI (NCI-H522 lung) [µM]	GI50 (MCF7 breast) [µM]	TGI (MCF7 breast) [µM]	GI50 (MALME-3M melanoma) [µM]	TGI (MALME-3M melanoma) [µM]	GI50 (HOP-62 NSCLC) [µM]	TGI (HOP-62 NSCLC) [µM]	GI50 (SW-620 colon) [µM]	TGI (SW-620 colon) [µM]	GI50 (HCT-15 colon) [µM]	TGI (HCT-15 colon) [µM]	GI50 (UACC-257 melanoma) [µM]	TGI (UACC-257 melanoma) [µM]	GI50 (KM12 colon) [µM]	TGI (KM12 colon) [µM]	GI50 (K-562 leukemia) [µM]	TGI (K-562 leukemia) [µM]
COc1cccc(Sc2ccc([N+](=O)[O-])c3no[n+]([O-])c23)c1	20.9	45.2	1.98	3.93	4.87	20.6	4.67	15	25.2	50	2.5	6.14	7.82	23.1	14	29.9	17.2	33.5	3.66	13
CC/C=C\C[C@H](O)C/C=C1/C(=O)C=C[C@@H]1C/C=C\CCCC(=O)OC(C)C	2.02	4.77	1.25	2.88	0.372	2.22	1.64	3.75	2.45	6.01	0.572	2.32	0.674	2.75	2.16	5.49	1.36	3.08	0.391	20.7
